NC(=O)N1c2ccccc2C=Cc2ccccc21
solubility (mole fraction) (in chloroform, 278.15 K): 0.0577
solubility (mole fraction) (in chloroform, 288.65 K): 0.0627
solubility (mole fraction) (in chloroform, 297.55 K): 0.0679
solubility (mole fraction) (in chloroform, 307.15 K): 0.0756
solubility (mole fraction) (in chloroform, 318.95 K): 0.086
solubility (mole fraction) (in chloroform, 327.95 K): 0.0968
solubility (mole fraction) (in cyclohexylamine, 287.25 K): 0.0149
solubility (mole fraction) (in cyclohexylamine, 302.35 K): 0.0193
solubility (mole fraction) (in cyclohexylamine, 317.65 K): 0.0259
solubility (mole fraction) (in cyclohexylamine, 332.85 K): 0.0353
solubility (mole fraction) (in cyclohexylamine, 348.15 K): 0.05
solubility (mole fraction) (in cyclohexylamine, 366.15 K): 0.0657
solubility (mole fraction) (in ethyl acetate, 281.35 K): 0.00272
solubility (mole fraction) (in ethyl acetate, 298.55 K): 0.00436
solubility (mole fraction) (in ethyl acetate, 306.55 K): 0.00548
solubility (mole fraction) (in ethyl acetate, 314.05 K): 0.0068
solubility (mole fraction) (in ethyl acetate, 326.85 K): 0.00959
solubility (mole fraction) (in ethyl acetate, 346.65 K): 0.0142
solubility (mole fraction) (in ethylene glycol, 279.15 K): 0.00098
solubility (mole fraction) (in ethylene glycol, 288.55 K): 0.00243
solubility (mole fraction) (in ethylene glycol, 316.85 K): 0.00861
solubility (mole fraction) (in ethylene glycol, 335.25 K): 0.0189
solubility (mole fraction) (in ethylene glycol, 346.55 K): 0.0294
solubility (mole fraction) (in ethylene glycol, 356.95 K): 0.0429
solubility (mole fraction) (in methyl acetate, 281.95 K): 0.00521
solubility (mole fraction) (in methyl acetate, 292.35 K): 0.00665
solubility (mole fraction) (in methyl acetate, 301.85 K): 0.00843
solubility (mole fraction) (in methyl acetate, 311.55 K): 0.0109
